Data: US10611740B2, “Aryl dihydro-2H-benzo[b][1,4]oxazine sulfonamide and related compounds for use as agonists of RORγ and the treatment of disease” (Lycera Corporation, priority 2015, dated 2020)

Target: T1, Gal4-RORγ-LBD (Homo sapiens, UniProt P51449)
T1 construct: expressed in transfected cells; host or cells: HEK-293 cells (pcDNA3.1neo plasmid)
T1 sequence (P51449 269-508 limits assumed): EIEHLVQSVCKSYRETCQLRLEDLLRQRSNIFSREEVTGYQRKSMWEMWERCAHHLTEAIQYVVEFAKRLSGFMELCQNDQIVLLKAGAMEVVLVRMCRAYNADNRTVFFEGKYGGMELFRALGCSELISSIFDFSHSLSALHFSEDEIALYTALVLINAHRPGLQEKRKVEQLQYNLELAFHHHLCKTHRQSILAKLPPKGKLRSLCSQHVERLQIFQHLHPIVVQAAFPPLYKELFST
Assay: Gal4-RORγ Luciferase Reporter Assay in HEK-293T Cells
Assay type: cell-based
Details: HEK-293 cells, 2 μM ursolic acid
Protocol: Assay procedures and results are described below.
In the following protocol, HEK-293 cells were transfected with a construct comprising the Gal4 DNA binding domain fused to the ligand binding domain of RORγ (Gal4-RORγ-LBD) in a pcDNA3.1neo plasmid, and also with a reporter construct comprising pGL4.31 Gal4-luciferase (Promega). Control cells were prepared similarly using empty pcDNA3.1neo and pGL4.31 vectors.
Trans-IT reagent (Mirus, 60 μL) at room temperature was added drop wise to OptiMEM (Invitrogen, 1.5 ml). This reagent mixture was mixed by inversion then incubated for 5 to 30 minutes at room temperature. It then was added to a solution of both expression vectors (5 μg each), mixed, and incubated at room temperature for about 20 minutes. HEK-293 cells were harvested from incubation flasks by removing the media, treating with TrypLE Express (Invitrogen), and incubating until the cells detached from the bottom of the flask (approximately 2-5 minutes). 10 Million cells were collected by centrifugation and re-suspended in 10 mL of Dulbecco's Modified Eagle Medium, High Glucose (DMEM, Invitrogen) containing 10% Fetal Bovine Serum and 100 IU each of penicillin and streptomycin. The re-suspended cells and the transfection mixture were added to a T75 flask, mixed and incubated overnight at 37° C. and 5% CO2.
The cells were harvested as described above, counted, and centrifuged to obtain the desired number of cells, then re-suspended in complete growth media at 0.75×10^6 cells/mL. The RORγ antagonist, ursolic acid, was added to the cells at a final concentration of 2 μM. Cells were plated at 20 μL of cell suspension/well (10,000-15,000 cells/well) in white tissue culture treated 384 well plates. Test compounds were dissolved at 10 mM in DMSO then diluted into complete growth medium to 5× the final intended test concentration. These drug stock solutions, 5 μL/well were added to the tissue culture plate. The final DMSO concentration was 0.2%. The plates were briefly centrifuged then incubated overnight at 37° C. and 5% CO2. To conduct the assay, the tissue culture plates were allowed to equilibrate to room temperature and One-Glo luciferase reagent (Promega, 25 μL/well) was added. The plates were briefly centrifuged then incubated at room temperature for 10 minutes. The luciferase intensity was read on an Envision plate reader (Perkin Elmer). […] The luciferase signal in the absence of ursolic acid or test compound is defined at 100. The Max Response is the upper plateau in the signal as determined by line-fit using a 4-parameter logistic model in PRISM (GraphPad).

SMILES | EC50 [nM] | Gal4-RORγ Assay Max Response
C[C@]1(C(=O)O)C[C@H](C[C@H]2CN(S(=O)(=O)c3cccc(C(F)(F)F)c3)c3cc(-c4cc(F)cc(OC(F)F)c4)ccc3O2)C1 [Compound 69, (1S,3r)-3-(((S)-6-(3-(difluoromethoxy)-5-fluorophenyl)-4-((3-(trifluoromethyl)phenyl)sulfonyl)-3,4-dihydro-2H-benzo[b][1,4]oxazin-2-yl)methyl)-1-methylcyclobutane-1-carboxylic acid] | 500 to 5000 | ** (The symbol “**” indicates a value in the range of greater than 90 to 150)
C[C@]1(C(=O)O)C[C@@H](C[C@H]2CN(S(=O)(=O)c3cccc(C(F)(F)F)c3)c3cc(-c4cc(F)cc(OC(F)F)c4)ccc3O2)C1 [Compound 70, (1R,3s)-3-(((S)-6-(3-(difluoromethoxy)-5-fluorophenyl)-4-((3-(trifluoromethyl)phenyl)sulfonyl)-3,4-dihydro-2H-benzo[b][1,4]oxazin-2-yl)methyl)-1-methylcyclobutane-1-carboxylic acid] | 500 to 5000 | *** (The symbol “***” indicates a value in the range of greater than 150 to 200)
O=C(O)C1(C[C@H]2CN(S(=O)(=O)c3cccc(C(F)(F)F)c3)c3cc(-c4cccc(OC(F)(F)F)c4)ccc3O2)CCOCC1 [Compound 78K, (S)-4-((6-(3-(trifluoromethoxy)-phenyl)-4-((3-(trifluoromethyl)-phenyl)sulfonyl)-3,4-dihydro-2H-benzo[b][1.4]oxazin-2-yl)methyl)tetrahydro-2H-pyran-4-carboxylic acid] | < 500 | ** (The symbol “**” indicates a value in the range of greater than 90 to 150)
COc1cc(Cl)cc(-c2ccc3c(c2)N(S(=O)(=O)c2cccc(C(F)(F)F)c2)C[C@H](CC2(C(=O)O)CCOCC2)O3)c1 [Compound 78L, (S)-4-((6-(3-chloro-5-methoxy-phenyl)-4-((3-(trifluoromethyl)-phenyl)sulfonyl)-3,4-dihydro-2H-benzo[b][1,4]oxazin-2-yl)methyl)tetrahydro-2H-pyran-4-carboxylic acid] | < 500 | ** (The symbol “**” indicates a value in the range of greater than 90 to 150)
O=C(O)C1(C[C@H]2CN(S(=O)(=O)c3cccc(C(F)(F)F)c3)c3cc(-c4cccc(F)c4Cl)ccc3O2)CCOCC1 [Compound 78M, (S)-4-((6-(2-chloro-3-fluoro-phenyl)-4-((3-(trifluoromethyl)-phenyl)sulfonyl)-3,4-dihydro-2H-benzo[b][1,4]oxazin-2-yl)methyl)tetrahydro-2H-pyran-4-carboxylic acid] | < 500 | *** (The symbol “***” indicates a value in the range of greater than 150 to 200)
O=C(O)C1(C[C@H]2CN(S(=O)(=O)c3cccc(C(F)(F)F)c3)c3cc(-c4cc(F)cc(F)c4)ccc3O2)CCOCC1 [Compound 78N, (S)-4-((6-(3,5-difluorophenyl)-4-((3-(trifluoromethyl)phenyl)-sulfonyl)-3,4-dihydro-2H-benzo[b][1,4]oxazin-2-yl)methyl)tetrahydro-2H-pyran-4-carboxylic acid] | < 500 | ** (The symbol “**” indicates a value in the range of greater than 90 to 150)
O=C(O)C1(C[C@H]2CN(S(=O)(=O)c3cccc(C(F)(F)F)c3)c3cc(-c4cc(F)cc(C(F)(F)F)c4)ccc3O2)CCOCC1 [Compound 78O, (S)-4-((6-(3-fluoro-5-(trifluoro-methyl)phenyl)-4-((3-(trifluoro-methyl)phenyl)sulfonyl)-3,4-dihydro-2H-benzo[b][1,4]oxazin-2-yl)methyl)tetrahydro-2H-pyran-4-carboxylic acid] | < 500 | ** (The symbol “**” indicates a value in the range of greater than 90 to 150)
O=C(O)C1(C[C@H]2CN(S(=O)(=O)c3cccc(C(F)(F)F)c3)c3cc(-c4cccc(F)c4F)ccc3O2)CCOCC1 [Compound 78P, (S)-4-((6-(2,3-difluorophenyl)-4-((3-(trifluoromethyl)phenyl)-sulfonyl)-3,4-dihydro-2H-benzo[b][1,4]oxazin-2-yl)methyl)tetrahydro-2H-pyran-4-carboxylic acid] | < 500 | ** (The symbol “**” indicates a value in the range of greater than 90 to 150)
Cc1cc(F)cc(-c2ccc3c(c2)N(S(=O)(=O)c2cccc(C(F)(F)F)c2)C[C@H](CC2(C(=O)O)CCOCC2)O3)c1 [Compound 78Q, (S)-4-((6-(3-fluoro-5-methyl-phenyl)-4-((3-(trifluoromethyl)-phenyl)sulfonyl)-3,4-dihydro-2H-benzo[b][1,4]oxazin-2-yl)methyl)tetrahydro-2H-pyran-4-carboxylic acid] | < 500 | ** (The symbol “**” indicates a value in the range of greater than 90 to 150)
COc1cc(F)cc(-c2ccc3c(c2)N(S(=O)(=O)c2cccc(C(F)(F)F)c2)C[C@H](CC2(C(=O)O)CCOCC2)O3)c1 [Compound 78R, (S)-4-((6-(3-fluoro-5-methoxy-phenyl)-4-((3-(trifluoromethyl)-phenyl)sulfonyl)-3,4-dihydro-2H-benzo[b][1,4]oxazin-2-yl)methyl)tetrahydro-2H-pyran-4-carboxylic acid] | < 500 | ** (The symbol “**” indicates a value in the range of greater than 90 to 150)
COc1cc(F)cc(-c2ccc3c(c2)N(S(=O)(=O)c2cccc(C(F)(F)F)c2)C[C@H](CC2(C(=O)O)CCOCC2)O3)c1F [Compound 78S, (S)-4-((6-(2,5-difluoro-3-methoxyphenyl)-4-((3-(trifluoro-methyl)phenyl)sulfonyl)-3,4-dihydro-2H-benzo[b][1,4]oxazin-2-yl)methyl)tetrahydro-2H-pyran-4-carboxylic acid] | < 500 | ** (The symbol “**” indicates a value in the range of greater than 90 to 150)
O=C(O)C1(C[C@H]2CN(S(=O)(=O)c3cccc(C(F)(F)F)c3)c3cc(-c4cc(F)cc(F)c4F)ccc3O2)CCOCC1 [Compound 78T, (S)-4-((4-((3-(trifluoromethyl)-phenyl)sulfonyl)-6-(2,3,5-trifluorophenyl)-3,4-dihydro-2H-benzo[b][1,4]oxazin-2-yl)methyl)tetrahydro-2H-pyran-4-carboxylic acid] | < 500 | ** (The symbol “**” indicates a value in the range of greater than 90 to 150)
COc1cc(F)c(F)c(-c2ccc3c(c2)N(S(=O)(=O)c2cccc(C(F)(F)F)c2)C[C@H](CC2(C(=O)O)CCOCC2)O3)c1 [Compound 78U, (S)-4-((6-(2,3-difluoro-5-methoxyphenyl)-4-((3-(trifluoromethyl)phenyl)sulfonyl)-3,4-dihydro-2H-benzo[b][1,4]oxazin-2-yl)methyl)tetrahydro-2H-pyran-4-carboxylic acid] | < 500 | ** (The symbol “**” indicates a value in the range of greater than 90 to 150)
O=C(O)C1(C[C@H]2CN(S(=O)(=O)c3cccc(C(F)(F)F)c3)c3cc(-c4cc(F)cc(OC(F)F)c4F)ccc3O2)CCOCC1 [Compound 78V, (S)-4-((6-(3-(difluoromethoxy)-2,5-difluorophenyl)-4-((3-(trifluoromethyl)phenyl)sulfonyl)-3,4-dihydro-2H-benzo[b][1,4]oxazin-2-yl)methyl)tetrahydro-2H-pyran-4-carboxylic acid] | < 500 | ** (The symbol “**” indicates a value in the range of greater than 90 to 150)
O=C(O)C1(C[C@H]2CN(S(=O)(=O)c3cccc(C(F)(F)F)c3)c3cc(-c4cc(Cl)cc(F)c4F)ccc3O2)CCOCC1 [Compound 78W, (S)-4-((6-(5-chloro-2,3-difluorophenyl)-4-((3-(trifluoromethyl)phenyl)sulfonyl)-3,4-dihydro-2H-benzo[b][1,4]oxazin-2-yl)methyl)tetrahydro-2H-pyran-4-carboxylic acid] | < 500 | ** (The symbol “**” indicates a value in the range of greater than 90 to 150)
